These results are taken from ChEMBL document CHEMBL5634100, “Novel spiro[pyrrolidine-2,3'-quinoline]-2'-one derivatives containing piperazine fragment as potential chitin synthase inhibitors and antifungal agents: Design, synthesis and biological evaluation” (Eur J Med Chem, 2023).

Assay [1] concerns Candida albicans. Briefly: Antimicrobial activity against micafungin-resistant Candida albicans ATCC 76615R incubated for 24 hrs by two fold serial dilution method. In kind it is functional.
The test system of assay [2] is Candida albicans. Briefly: Antimicrobial activity against Candida albicans ATCC 76615 incubated for 24 hrs by two fold serial dilution method. Type of assay: functional.
The subject of a further assay is Candida tropicalis. Briefly: Inhibition of Candida tropicalis ATCC 750 chitin synthase using UDP-GlcNAc as substrate at 300 ug/ml by TMB based microplate analyzer relative to control. Particulars: dose 300.0 µg/ml.
In assay [3] the test system is Aspergillus flavus. In words: Antimicrobial activity against Aspergillus flavus ATCC 16870 incubated for 24 hrs by two fold serial dilution method. In kind it is functional.
Assay [4] concerns Cryptococcus neoformans. Briefly: Antimicrobial activity against Cryptococcus neoformans ATCC 32719 incubated for 24 hrs by two fold serial dilution method. Type of assay: functional.
The test system of assay [5] is Aspergillus fumigatus. In words: Antimicrobial activity against Aspergillus fumigatus GIMCC 3.19 incubated for 24 hrs by two fold serial dilution method. Type of assay: functional.
Assay [6] has as its system Aspergillus flavus. Briefly: Antimicrobial activity against Fluconazole-resistant Aspergillus flavus ATCC 16870R incubated for 24 hrs by two fold serial dilution method. Type of assay: functional.
Assay [7] deals with Candida albicans. Briefly: Antimicrobial activity against fluconazole-resistant Candida albicans ATCC 76615R incubated for 24 hrs by two fold serial dilution method. Type of assay: functional.
For assay [8], the system named is Cryptococcus neoformans. Briefly: Antimicrobial activity against Fluconazole-resistant Cryptococcus neoformans ATCC 32719R incubated for 24 hrs by two fold serial dilution method. Type of assay: functional.
Assay [9] relates to Aspergillus fumigatus. In words: Antimicrobial activity against Fluconazole-resistant Aspergillus fumigatus GIMCC 3.19R incubated for 24 hrs by two fold serial dilution method. In kind it is functional.
Assay [10] can be described thus: Inhibition of Candida tropicalis ATCC 750 chitin synthase using UDP-GlcNAc as substrate by TMB based microplate analyzer.
Assay [11] has as its system Aspergillus flavus. Briefly: Antimicrobial activity against Aspergillus flavus ATCC 16870 assessed as inhibition of cell wall synthesis in presence of sorbitol. In kind it is functional.
Assay [12] deals with Aspergillus fumigatus. In words: Antimicrobial activity against Aspergillus fumigatus GIMCC 3.19 assessed as inhibition of cell wall synthesis in presence of sorbitol. Type of assay: functional.
Assay [13] has as its system Candida albicans. In words: Antimicrobial activity against Candida albicans ATCC 76615 assessed as inhibition of cell wall synthesis in presence of sorbitol. In kind it is functional.
For assay [14], the system named is Cryptococcus neoformans. In words: Antimicrobial activity against Cryptococcus neoformans ATCC 32719 assessed as inhibition of cell wall synthesis in presence of sorbitol. Type of assay: functional.

≈ marks a conversion by molar mass, not a printed value. Numbered stars: 1 amine (or outer) side, 2 acyl side, 3 side chain; on linkers, the order of the positions; unused ones are H or OH. Bridge positions count the residues as written; N and C are the ends. Square brackets hold non-standard residues; d marks the D form. Peptide text beside a SMILES is read from it. * marks the point of attachment. hTyr(3S-OH,4S-OH,3'-OSO3H) = N[C@H](C(=O)O)[C@H](O)[C@@H](O)c1ccc(O)c(OS(=O)(=O)O)c1; Orn(4R-OH,5R-OH) = O=C([C@H](C[C@@H](O)[C@@H](O)N[*:3])N[*:1])[*:2]; Pro(3S-OH,4S-Me) = C[C@H]1CN[C@H](C(=O)O)[C@H]1O; X1 = CCCCCOc1ccc(-c2cc(-c3ccc(C(=O)*)cc3)no2)cc1; Gln(3R-OH) = NC(=O)C[C@@H](O)[C@H](N)C(=O)O; Hyp = O=C(O)[C@@H]1C[C@@H](O)CN1 Bounds are passed on as bounds.

As to `CCCCCOc1ccc(-c2cc(-c3ccc(C(=O)N[C@H]4C[C@@H](O)[C@@H](O)NC(=O)[C@@H]5[C@@H](O)[C@@H](C)CN5C(=O)[C@H]([C@H](O)CC(N)=O)NC(=O)[C@H]([C@H](O)[C@@H](O)c5ccc(O)c(OS(=O)(=O)O)c5)NC(=O)[C@@H]5C[C@@H](O)CN5C(=O)[C@H]([C@@H](C)O)NC4=O)cc3)no2)cc1` [MICAFUNGIN] (X1-[Orn(4R-OH,5R-OH)]T[Hyp][hTyr(3S-OH,4S-OH,3'-OSO3H)][Gln(3R-OH)][Pro(3S-OH,4S-Me)]; lactam 1-C), the MIC (commonly the lowest concentration found to suppress growth) in the assay with Candida albicans [1] is over 256 µg/mL.
Turning to `O=C(c1ccccc1)N1CCN(CC(=O)N2CCCC23Cc2ccccc2NC3=O)CC1` (stereo not given), the minimum inhibitory concentration (MIC) was 16 µg/mL (≈ 37 µM) against Candida albicans [2], 32 µg/mL (≈ 74 µM) against Aspergillus flavus [3], 64 µg/mL (≈ 148 µM) with Cryptococcus neoformans [4] and 32 µg/mL (≈ 74 µM) in the assay on Aspergillus fumigatus [5]. Further, in the assay on Candida tropicalis, the inhibition (in general, the drop in the measured response relative to a control, in per cent) is 47%.
`Cc1ccc(C(=O)N2CCN(CC(=O)N3CCCC34Cc3ccccc3NC4=O)CC2)cc1` (stereo not given): the MIC in the assay with Candida albicans [2] was 16 µg/mL (≈ 35.8 µM); in the assay on Aspergillus flavus [3] it was 16 µg/mL (≈ 35.8 µM); against Cryptococcus neoformans [4], 64 µg/mL (≈ 143 µM); with Aspergillus fumigatus [5], 32 µg/mL (≈ 71.7 µM). For the same compound, the inhibition in the assay on Candida tropicalis came out at 52.3%.
For `OC(Cn1cncn1)(Cn1cncn1)c1ccc(F)cc1F` [FLUCONAZOLE], the MIC in the assay on Aspergillus flavus [6] was over 256 µg/mL; against Candida albicans [2], 4 µg/mL (≈ 13.1 µM); with Candida albicans [7] it was over 256 µg/mL; with Cryptococcus neoformans [8], over 256 µg/mL; in the assay on Aspergillus flavus [3], 8 µg/mL (≈ 26.1 µM); against Cryptococcus neoformans [4], 8 µg/mL (≈ 26.1 µM). For the same compound, the minimum inhibitory concentration (MIC) was over 256 µg/mL against Aspergillus fumigatus [9] and 4 µg/mL (≈ 13.1 µM) in the assay on Aspergillus fumigatus [5].
Take `O=C(c1ccccc1I)N1CCN(CC(=O)N2CCCC23Cc2ccccc2NC3=O)CC1` (stereo not given): the minimum inhibitory concentration (MIC) was 8 µg/mL (≈ 14.3 µM) with Candida albicans [2], 16 µg/mL (≈ 28.7 µM) in the assay with Aspergillus flavus [3], 32 µg/mL (≈ 57.3 µM) against Cryptococcus neoformans [4] and 16 µg/mL (≈ 28.7 µM) against Aspergillus fumigatus [5]. This compound returned an inhibition in the assay with Candida tropicalis of 54.2%.
On to `O=C(c1cccc(Br)c1)N1CCN(CC(=O)N2CCCC23Cc2ccccc2NC3=O)CC1` (stereo not given), for which the MIC in the assay with Candida albicans [2] stood at 8 µg/mL (≈ 15.6 µM); with Aspergillus flavus [3], 16 µg/mL (≈ 31.3 µM); in the assay on Cryptococcus neoformans [4], 32 µg/mL (≈ 62.6 µM); in the assay on Aspergillus fumigatus [5], 16 µg/mL (≈ 31.3 µM). The IC50 (usually the concentration that inhibits the measured activity by half) in assay [10] worked out at 320 µM. In the assay with Candida tropicalis, the inhibition stood at 58.8%.
`O=C(c1cc(Cl)ccc1Cl)N1CCN(CC(=O)N2CCCC23Cc2ccccc2NC3=O)CC1` (stereo not given): the MIC with Aspergillus flavus [11] was found to be 32 µg/mL; with Aspergillus flavus [6], 64 µg/mL (≈ 128 µM); in the assay with Candida albicans [2] it was 4 µg/mL (≈ 7.98 µM); in the assay with Aspergillus fumigatus [12] it was 64 µg/mL; in the assay on Candida albicans [13], 64 µg/mL; against Candida albicans [7], 64 µg/mL (≈ 128 µM). For the same compound, the MIC was determined as 64 µg/mL (≈ 128 µM) with Cryptococcus neoformans [8]; 8 µg/mL (≈ 16 µM) against Aspergillus flavus [3]; 8 µg/mL (≈ 16 µM) against Cryptococcus neoformans [4]; 128 µg/mL in the assay with Cryptococcus neoformans [14]; 64 µg/mL (≈ 128 µM) with Aspergillus fumigatus [9]; 8 µg/mL (≈ 16 µM) in the assay with Aspergillus fumigatus [5]. In the assay with Candida albicans [1], this compound displayed an MIC of 32 µg/mL (≈ 63.8 µM). Also, the IC50 in assay [10] worked out at 180 µM. Moreover, the inhibition with Candida tropicalis turned out to be 67.6%.
